# Target: human TrkA receptor (Homo sapiens (Human), UniProt P04629)
# Assay: TrkA functional activity, DiscoverX PathHunter assay (NGF-stimulated U2OS cells)
# Format: cell-based
# Conditions: U2OS cells expressing human TrkA-Prolink, Shc1-EA and p75NTR; compound 1 h, then NGF (~80% of maximal response) 3 h; luminescence
# Experimental: TrkA functional activity was measured using a DiscoverX PathHunter assay. In this assay, U2OS cells express the human TrkA receptor as a fusion with the weakly complementing fragment of B-galactosidase, which DiscoverX calls “Prolink (PK)”; additionally, Shc1 is fused with a larger fragment, which is called “Enzyme Acceptor (EA)”. Activation of the TrkA receptor, upon NGF addition, results in the kinase domain being phosphorylated, resulting in subsequent recruitment of Shc1-EA protein. That recruitment results in an active B-galactosidase enzyme that is detected by addition of a chemiluminescent substrate. The human p75^NTR protein was also expressed as a co-receptor for NGF.
# All reagents were purchased from DiscoverX, except for the receptor agonists (NGF, BDNF, NT3) which were purchased from Peprotech. Cells were expanded and frozen into cryovials, and stored in the vapor phase of liquid nitrogen, and thawed immediately before use. Thawed cells were added to a 384-well plate at 7500 cells/well, and allowed to incubate overnight. Compound at various concentrations was added the following morning and allowed to incubate on cells for 1 h. Then, NGF was added at a concentration sufficient to elicit ˜80% of a maximal response and allowed to incubate for 3 h at ambient temperature. DiscoverX PathHunter detection reagent was then added and the plate was further incubated for 1 h in the dark. The plate was then read via luminescence on the Perkin Elmer Envision.
# Chain of human TrkA receptor (P04629 33-796): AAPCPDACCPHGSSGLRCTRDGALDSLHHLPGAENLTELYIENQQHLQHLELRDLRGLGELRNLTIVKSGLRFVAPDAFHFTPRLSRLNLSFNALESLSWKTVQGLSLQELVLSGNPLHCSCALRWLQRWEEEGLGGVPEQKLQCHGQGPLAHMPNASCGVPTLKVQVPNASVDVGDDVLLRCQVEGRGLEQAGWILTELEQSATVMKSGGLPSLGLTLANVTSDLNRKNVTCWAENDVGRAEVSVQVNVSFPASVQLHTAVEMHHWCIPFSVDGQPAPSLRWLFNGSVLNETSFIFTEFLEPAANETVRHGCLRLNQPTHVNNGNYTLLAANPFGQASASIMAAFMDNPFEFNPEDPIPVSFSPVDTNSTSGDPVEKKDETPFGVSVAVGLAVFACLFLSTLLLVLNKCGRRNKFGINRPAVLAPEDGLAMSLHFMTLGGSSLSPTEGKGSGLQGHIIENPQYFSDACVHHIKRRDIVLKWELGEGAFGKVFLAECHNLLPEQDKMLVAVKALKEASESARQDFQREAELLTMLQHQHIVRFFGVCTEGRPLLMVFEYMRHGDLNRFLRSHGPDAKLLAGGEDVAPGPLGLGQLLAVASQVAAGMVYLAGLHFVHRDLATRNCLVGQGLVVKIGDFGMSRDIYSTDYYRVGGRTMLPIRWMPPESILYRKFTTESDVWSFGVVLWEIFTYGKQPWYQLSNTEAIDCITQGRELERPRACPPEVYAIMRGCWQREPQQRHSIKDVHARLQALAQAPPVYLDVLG
row,SMILES,IC50
1,"CC(C)(O)c1cc2cc(-c3ccccc3)c(NC(=O)c3cc(-c4ncccn4)c(C(F)(F)F)cc3F)cc2[nH]1 [Compound 44, 2-Fluoro-N-(2-(2-hydroxypropan-2-yl)-5-phenyl-1H-indol-6-yl)-5-(pyrimidin-2-yl)-4-(trifluoromethyl)benzamide]",96 nM
2,"CC(C)(O)c1n[nH]c2c(NC(=O)c3cc(-c4ncccn4)c(C(F)(F)F)cc3F)c(-c3ccccc3)ccc12 [Compound 45, 2-Fluoro-N-(3-(2-hydroxypropan-2-yl)-6-phenyl-1H-indazol-7-yl)-5-(pyrimidin-2-yl)-4-(trifluoromethyl)benzamide]",4.3 nM
3,"NC(=O)Cc1cnc2c(NC(=O)c3cc(-c4ncccn4)c(C(F)(F)F)cc3F)c(-c3ccccc3)ccn12 [Compound 50, N-(3-(2-Amino-2-oxoethyl)-7-phenylimidazo[1,2-a]pyridin-8-yl)-2-fluoro-5-(pyrimidin-2-yl)-4-(trifluoromethyl)benzamide]",28 nM
4,"O=C(Nc1c(-c2ccc(F)cc2)ccn2c(CO)cnc12)c1cc(-c2ncccn2)c(C(F)(F)F)cc1F [Compound 51, 2-Fluoro-N-(7-(4-fluorophenyl)-3-(hydroxymethyl)imidazo[1,2-a]pyridin-8-yl)-5-(pyrimidin-2-yl)-4-(trifluoromethyl)benzamide]",60 nM
5,"CC(C)(O)c1cnc2c(NC(=O)c3cc(-c4ncccn4)c(C(F)(F)F)cc3F)c(-c3ccc(F)cc3)ccn12 [Compound 54, 2-fluoro-N-[7-(4-fluorophenyl)-3-(1-hydroxy-1-methylethyl)imidazo[1,2-a]pyridin-8-yl]-5-pyrimidin-2-yl-4-(trifluoromethyl)benzamide]",58 nM
6,"Cc1ccccc1-c1ccn2c(C(C)(C)O)cnc2c1NC(=O)c1cc(-c2ncccn2)c(C(F)(F)F)cc1F [Compound 55, 2-Fluoro-N-(3-(2-hydroxypropan-2-yl)-7-(o-tolyl)imidazo[1,2-a]pyridin-8-yl)-5-(pyrimidin-2-yl)-4-(trifluoromethyl)benzamide]",82 nM
7,"Cc1ccccc1-c1ccn2c(C(N)=O)cnc2c1NC(=O)c1cc(-c2ccn(C)n2)c(C(F)(F)F)cc1F [Compound 56, 8-(2-Fluoro-5-(1-methyl-1H-pyrazol-3-yl)-4-(trifluoromethyl)benzamido)-7-(o-tolyl)imidazo[1,2-a]pyridine-3-carboxamide]",29 nM
8,"CC(C)(O)c1cnc2c(NC(=O)c3cc(-c4ncccn4)c(C(F)(F)F)cc3F)c(-c3cccc(CO)c3)ccn12 [Compound 57, 2-Fluoro-N-(7-(3-(hydroxymethyl)phenyl)-3-(2-hydroxypropan-2-yl)imidazo[1,2-a]pyridin-8-yl)-5-(pyrimidin-2-yl)-4-(trifluoromethyl)benzamide]",201 nM
9,"O=C(Nc1c(-c2cccc(CO)c2)ccn2ccnc12)c1cc(-c2ncccn2)c(C(F)(F)F)cc1F [Compound 58, 2-Fluoro-N-(7-(3-(hydroxymethyl)phenyl)imidazo[1,2-a]pyridin-8-yl)-5-(pyrimidin-2-yl)-4-(trifluoromethyl)benzamide]",232 nM
10,CC(C)(O)c1ncn2c(NC(=O)c3cc(-c4ncccn4)c(C(F)(F)F)cc3F)c(-c3ccccc3)ccc12 [Compound 59],25 nM
11,"Cn1ccc(-c2cc(C(=O)Nc3cn4c(CO)ncc4nc3-c3ccccc3)c(F)cc2C(F)(F)F)n1 [Compound 61, 2-Fluoro-N-(6-(hydroxymethyl)-2-phenylimidazo[1,5-a]pyrimidin-3-yl)-5-(1-methyl-1H-pyrazol-3-yl)-4-(trifluoromethyl)benzamide]",4 nM
12,"Cc1ncc2nc(-c3ccccc3)c(NC(=O)c3ccc(C(F)(F)F)c(-c4ccn(C)n4)c3)cn12 [Compound 62, 3-(1-Methyl-1H-pyrazol-3-yl)-N-(6-methyl-2-phenylimidazo[1,5-a]pyrimidin-3-yl)-4-(trifluoromethyl)benzamide]",47 nM

# More lines, now with the values ahead:
row,IC50,SMILES
1,32 nM,"Cn1ccc(-c2cc(C(=O)Nc3cn4c(C(=O)O)ncc4nc3-c3ccccc3)c(F)cc2C(F)(F)F)n1 [Compound 63, 3-(2-Fluoro-5-(1-methyl-1H-pyrazol-3-yl)-4-(trifluoromethyl)benzamido)-2-phenylimidazo[1,5-a]pyrimidine-6-carboxylic acid]"
2,5.5 nM,"Cn1ccc(-c2cc(C(=O)Nc3cn4cncc4nc3-c3ccccc3)c(F)cc2C(F)(F)F)n1 [Compound 64, 2-Fluoro-5-(1-methyl-1H-pyrazol-3-yl)-N-(2-phenylimidazo[1,5-a]pyrimidin-3-yl)-4-(trifluoromethyl)benzamide]"
3,4.4 nM,"Cn1ccc(-c2cc(C(=O)Nc3cn4c(CO)ncc4cc3-c3ccccc3)c(F)cc2C(F)(F)F)n1 [Compound 65, 2-Fluoro-N-(3-(hydroxymethyl)-7-phenylimidazo[1,5-a]pyridin-6-yl)-5-(1-methyl-1H-pyrazol-3-yl)-4-(trifluoromethyl)benzamide]"
4,204 nM,"CCOC(=O)c1cnc2c(NC(=O)c3cc(-c4ccn(C)n4)c(C(F)(F)F)s3)c(-c3ccccc3)ccn12 [Compound 66, Ethyl 8-(4-(1-methyl-1H-pyrazol-3-yl)-5-(trifluoromethyl)thiophene-2-carboxamido)-7-phenylimidazo[1,2-a]pyridine-3-carboxylate]"
5,56 nM,"Cn1ccc(-c2cc(C(=O)Nc3c(-c4ccccc4)ccn4c(C(N)=O)cnc34)sc2C(F)(F)F)n1 [Compound 67, 8-(4-(1-Methyl-1H-pyrazol-3-yl)-5-(trifluoromethyl)thiophene-2-carboxamido)-7-phenylimidazo[1,2-a]pyridine-3-carboxamide]"
6,48 nM,"Cn1ccc(-c2cc(C(=O)Nc3c(-c4ccccc4)ccn4c(CO)cnc34)sc2C(F)(F)F)n1 [Compound 68, N-(3-(Hydroxymethyl)-7-phenylimidazo[1,2-a]pyridin-8-yl)-4-(1-methyl-1H-pyrazol-3-yl)-5-(trifluoromethyl)thiophene-2-carboxamide]"
7,6.5 nM,"O=C(Nc1c(-c2ccccc2)ncn2c(CO)cnc12)c1cc(-c2ncccn2)c(C(F)(F)F)cc1F [Compound 69, 2-Fluoro-N-(3-(hydroxymethyl)-7-phenylimidazo[1,2-c]pyrimidin-8-yl)-5-(pyrimidin-2-yl)-4-(trifluoromethyl)benzamide]"
8,1.2 nM,"Cn1ccc(-c2cc(C(=O)Nc3c(-c4ccccc4)ncn4c(CO)cnc34)c(F)cc2C(F)(F)F)n1 [Compound 70, 2-Fluoro-N-(3-(hydroxymethyl)-7-phenylimidazo[1,2-c]pyrimidin-8-yl)-5-(1-methyl-1H-pyrazol-3-yl)-4-(trifluoromethyl)benzamide]"
9,4.8 nM,"CC(C)(O)c1cnc2c(NC(=O)c3cc(-c4ncccn4)c(C(F)(F)F)cc3F)c(-c3ccccc3)ncn12 [Compound 73, 2-Fluoro-N-(3-(2-hydroxypropan-2-yl)-7-phenylimidazo[1,2-c]pyrimidin-8-yl)-5-(pyrimidin-2-yl)-4-(trifluoromethyl)benzamide]"
